In one assay the target is T1, CARM1 (Homo sapiens, UniProt Q86X55).
T1 sequence (Q86X55 1-608): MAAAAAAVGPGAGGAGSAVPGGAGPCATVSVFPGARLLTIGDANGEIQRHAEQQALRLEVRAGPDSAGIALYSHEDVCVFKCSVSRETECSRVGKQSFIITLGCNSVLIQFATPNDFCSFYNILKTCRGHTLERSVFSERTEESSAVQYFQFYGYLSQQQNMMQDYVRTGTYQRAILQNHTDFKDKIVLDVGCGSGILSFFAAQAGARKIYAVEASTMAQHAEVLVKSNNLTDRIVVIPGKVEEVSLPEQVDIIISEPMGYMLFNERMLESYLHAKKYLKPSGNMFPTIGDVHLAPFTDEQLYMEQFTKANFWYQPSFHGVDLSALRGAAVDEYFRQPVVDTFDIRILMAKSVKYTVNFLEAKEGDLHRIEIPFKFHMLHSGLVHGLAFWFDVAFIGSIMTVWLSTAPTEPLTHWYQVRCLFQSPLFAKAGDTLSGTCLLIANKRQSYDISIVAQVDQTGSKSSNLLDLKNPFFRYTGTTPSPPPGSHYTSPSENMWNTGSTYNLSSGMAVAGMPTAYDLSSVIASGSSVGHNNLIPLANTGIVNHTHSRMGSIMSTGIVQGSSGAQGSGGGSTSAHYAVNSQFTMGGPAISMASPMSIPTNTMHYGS
As to the kind of experiment: Global proteomics of MCF7 cells, CARM1 level. The conditions noted are these: 25 nM, 4 h, versus DMSO. It is filed as cell-based. Also noted: we performed a global quantitative proteomic analysis of MCF7 cells using mass spectrometry; endogenous in cells; host or cells: MCF7. The method, then: Sample preparation for global proteomics analysis. Sample preparation is similar to the previous report (Ma et al. “Strategy Based on Deglycosylation, Multiprotease, and Hydrophilic Interaction Chromatography for Large-Scale Profiling of Protein Methylation” Anal. Chem. 2017, 89 (23), 12909-12917). Briefly, treated MCF7 cells were harvested by washing with PBS buffer (Gibco, pH 7.4) and lysed in RIPA buffer supplemented with protease inhibitors for 20 min, then protein concentration was determined using a BCA Protein Assay Kit (Thermo Pierce, Rockford, IL) per manufacturer instructions. […] The concentrations of the peptide mixture were measured by peptide assay (Thermo Fisher Scientific). […]
LC-MS/MS data acquisition. Samples were analyzed on an Orbitrap Fusion Lumos Tribrid mass spectrometer (Thermo Fisher Scientific) coupled to a Dionex UltiMate 3000 UPLC system. […]
Data analysis. Protein identification and quantification by MaxQuant (version 1.5.3.8) based database searching, using the integrated Andromeda search engine with FDR <1% at peptide and protein levels. […] For label-free protein quantification (LFQ), the MaxQuant LFQ algorithm was used to quantitate the MS signals, and the proteins' intensities were represented in LFQintesnit (Schaab et al. “Analysis of High Accuracy, Quantitative Proteomics Data in the MaxQB Database” Mol. Cell. Proteomics 2012, 11 (3), M111.014068). […]

The test system of another assay is MDA-MB-231 cells. As to the kind of experiment: Cell proliferation assay, MDA-MB-231 cells. The class given is cell-based. The settings on record: 0.5 μM, 7 days. The method, then:
Cell Proliferation Assay. Cell proliferation was measured by direct cell count via high contrast brightfield microscopy. MDA-MB-231 cells (3×10^3/well) were seeded in 100 μL of DMEM into the wells of a 96-well plate. Cells were treated with either DMSO, TP-064, or 3b and refreshed every two days. The plate was imaged daily for 7 days using the High-Contrast Brightfield Kit for Label-Free Cell Counting (BioTek) on the BioTek Imager.

Consider one molecule from patent US20250222120A1, “SYNTHESIS OF NOVEL SMALL MOLECULE CARM1 DEGRADERS, COMPOUNDS FORMED THEREBY, AND PHARMACEUTICAL COMPOSITIONS CONTAINING THEM” (Wisconsin Alumni Research Foundation, priority 2024, published 2025).

The structures appear in SMILES notation.

Turning to `CNCCN1CCC(c2cc(CN(C)C(=O)c3cccc(Oc4ccc(OCC(=O)N5CCC(CN6CCC(CN7CCN(CC(=O)N[C@H](C(=O)N8C[C@H](O)C[C@H]8C(=O)N[C@@H](C)c8ccc(-c9scnc9C)cc8)C(C)(C)C)CC7)CC6)CC5)cc4)c3)ccn2)CC1` [Compound 3b, (2S,4R)-1-((S)-3,3-dimethyl-2-(2-(4-((1-((1-(2-(4-(3-(methyl((2-(1-(2-(methylamino)ethyl)piperidin-4-yl)pyridin-4-yl)methyl)carbamoyl)phenoxy)phenoxy)acetyl)piperidin-4-yl)methyl)piperidin-4-yl)methyl)piperazin-1-yl)acetamido)butanoyl)-4-hydroxy-N—((S)-1-(4-(4-methylthiazol-5-yl)phenyl)ethyl)pyrrolidine-2-carboxamide], at CARM1, the “CARM1 protein level in proteomics” value is “significant downregulation”. Further, the Cell proliferation result in the assay with MDA-MB-231 cells was “not to inhibit cell proliferation”.
